Reference: BigSolDB 2.1

O=C(O)[C@@H]1C[C@@H](O)CN1
Details | solubility (mole fraction)
in 1,4-dioxane, 288.15 K | 0.00041
in 1,4-dioxane, 293.15 K | 0.00063
in 1,4-dioxane, 298.15 K | 0.00085
in 1,4-dioxane, 303.15 K | 0.00108
in 1,4-dioxane, 308.15 K | 0.00131
in 1,4-dioxane, 313.15 K | 0.00153
in 1,4-dioxane, 318.15 K | 0.00178
in 1,4-dioxane, 323.15 K | 0.00204
in 1,4-dioxane, 328.15 K | 0.00238
in 1,4-dioxane, 333.15 K | 0.00274
in 2-butanone, 283.15 K | 4.4e-05
in 2-butanone, 288.15 K | 7.9e-05
in 2-butanone, 293.15 K | 0.000128
in 2-butanone, 298.15 K | 0.00019
in 2-butanone, 303.15 K | 0.00028
in 2-butanone, 308.15 K | 0.000382
in 2-butanone, 313.15 K | 0.000483
in 2-butanone, 318.15 K | 0.000602
in 2-butanone, 323.15 K | 0.000723
in 2-butanone, 328.15 K | 0.000865
in 2-butanone, 333.15 K | 0.00101
in acetone, 283.15 K | 0.000922
in acetone, 288.15 K | 0.0011
in acetone, 293.15 K | 0.00139
in acetone, 298.15 K | 0.00164
in acetone, 303.15 K | 0.00205
in acetone, 308.15 K | 0.00235
in acetone, 313.15 K | 0.00277
in acetone, 318.15 K | 0.0032
in acetone, 323.15 K | 0.00383
in acetone, 328.15 K | 0.00441
in acetonitrile, 288.15 K | 3.3e-05
in acetonitrile, 293.15 K | 6.5e-05
in acetonitrile, 298.15 K | 0.000103
in acetonitrile, 303.15 K | 0.000146
in acetonitrile, 308.15 K | 0.000186
in acetonitrile, 313.15 K | 0.000226
in acetonitrile, 318.15 K | 0.000267
in acetonitrile, 323.15 K | 0.000315
in acetonitrile, 328.15 K | 0.000358
in acetonitrile, 333.15 K | 0.000416
in dichloromethane, 283.15 K | 0.000134
in dichloromethane, 288.15 K | 0.000221
in dichloromethane, 293.15 K | 0.000313
in dichloromethane, 298.15 K | 0.000412
in dichloromethane, 303.15 K | 0.000511
in dichloromethane, 308.15 K | 0.000614
in ethanol, 283.15 K | 7e-05
in ethanol, 288.15 K | 0.000109
in ethanol, 293.15 K | 0.000145
in ethanol, 298.15 K | 0.000188
in ethanol, 303.15 K | 0.000226
in ethanol, 308.15 K | 0.000273
in ethanol, 313.15 K | 0.000313
in ethanol, 318.15 K | 0.000378
in ethanol, 323.15 K | 0.000431
in ethanol, 328.15 K | 0.000512
in ethanol, 333.15 K | 0.000573
in ethyl acetate, 283.15 K | 0.000455
in ethyl acetate, 288.15 K | 0.000653
in ethyl acetate, 293.15 K | 0.000863
in ethyl acetate, 298.15 K | 0.00108
in ethyl acetate, 303.15 K | 0.00132
in ethyl acetate, 308.15 K | 0.00167
in ethyl acetate, 313.15 K | 0.0019
in ethyl acetate, 318.15 K | 0.00227
in ethyl acetate, 323.15 K | 0.00262
in ethyl acetate, 328.15 K | 0.00314
in ethyl acetate, 333.15 K | 0.00379
in isobutanol, 283.15 K | 6.9e-05
in isobutanol, 288.15 K | 8.2e-05
in isobutanol, 293.15 K | 9.7e-05
in isobutanol, 298.15 K | 0.000113
in isobutanol, 303.15 K | 0.000143
in isobutanol, 308.15 K | 0.000189
in isobutanol, 313.15 K | 0.000222
in isobutanol, 318.15 K | 0.000263
in isobutanol, 323.15 K | 0.000301
in isobutanol, 328.15 K | 0.000346
in isobutanol, 333.15 K | 0.000383
in isopropanol, 283.15 K | 3.5e-05
in isopropanol, 288.15 K | 6.8e-05
in isopropanol, 293.15 K | 9.9e-05
in isopropanol, 298.15 K | 0.000119
in isopropanol, 303.15 K | 0.000154
in isopropanol, 308.15 K | 0.000204
in isopropanol, 313.15 K | 0.000254
in isopropanol, 318.15 K | 0.00031
in isopropanol, 323.15 K | 0.00036
in isopropanol, 328.15 K | 0.000419
in isopropanol, 333.15 K | 0.000493
in methanol, 283.15 K | 0.000127
in methanol, 288.15 K | 0.000149
in methanol, 293.15 K | 0.000171
in methanol, 298.15 K | 0.000212
in methanol, 303.15 K | 0.000253
in methanol, 308.15 K | 0.000292
in methanol, 313.15 K | 0.000328
in methanol, 318.15 K | 0.000407
in methanol, 323.15 K | 0.000525
in methanol, 328.15 K | 0.000653
in methanol, 333.15 K | 0.000784
in methyl acetate, 283.15 K | 1.5e-05
in methyl acetate, 288.15 K | 4e-05
in methyl acetate, 293.15 K | 8e-05
in methyl acetate, 298.15 K | 0.000116
in methyl acetate, 303.15 K | 0.000153
in methyl acetate, 308.15 K | 0.000219
in methyl acetate, 313.15 K | 0.000278
in methyl acetate, 318.15 K | 0.000331
in methyl acetate, 323.15 K | 0.0004
in methyl acetate, 328.15 K | 0.000474
in n-butanol, 283.15 K | 8.8e-05
in n-butanol, 288.15 K | 0.0001
in n-butanol, 293.15 K | 0.000122
in n-butanol, 298.15 K | 0.000142
in n-butanol, 303.15 K | 0.000181
in n-butanol, 308.15 K | 0.000219
in n-butanol, 313.15 K | 0.000264
in n-butanol, 318.15 K | 0.000316
in n-butanol, 323.15 K | 0.000362
in n-butanol, 328.15 K | 0.00042
in n-butanol, 333.15 K | 0.0005
in n-pentanol, 283.15 K | 6.3e-05
in n-pentanol, 288.15 K | 8.4e-05
in n-pentanol, 293.15 K | 0.000114
in n-pentanol, 298.15 K | 0.000142
in n-pentanol, 303.15 K | 0.00017
in n-pentanol, 308.15 K | 0.000215
in n-pentanol, 313.15 K | 0.000321
in n-pentanol, 318.15 K | 0.000487
in n-pentanol, 323.15 K | 0.000628
in n-pentanol, 328.15 K | 0.000805
in n-pentanol, 333.15 K | 0.00104
in n-propanol, 283.15 K | 6.6e-05
in n-propanol, 288.15 K | 0.000109
in n-propanol, 293.15 K | 0.000126
in n-propanol, 298.15 K | 0.000154
in n-propanol, 303.15 K | 0.000203
in n-propanol, 308.15 K | 0.000253
in n-propanol, 313.15 K | 0.000304
in n-propanol, 318.15 K | 0.000355
in n-propanol, 323.15 K | 0.000409
in n-propanol, 328.15 K | 0.000456
in n-propanol, 333.15 K | 0.000502
in sec-butanol, 283.15 K | 3.8e-05
in sec-butanol, 288.15 K | 6.8e-05
in sec-butanol, 293.15 K | 9e-05
in sec-butanol, 298.15 K | 0.000129
in sec-butanol, 303.15 K | 0.000166
in sec-butanol, 308.15 K | 0.000205
in sec-butanol, 313.15 K | 0.000245
in sec-butanol, 318.15 K | 0.000293
in sec-butanol, 323.15 K | 0.000321
in sec-butanol, 328.15 K | 0.000365
in sec-butanol, 333.15 K | 0.000407
in water, 283.15 K | 0.0457
in water, 288.15 K | 0.0473
in water, 293.15 K | 0.0493
in water, 298.15 K | 0.0511
in water, 303.15 K | 0.053
in water, 308.15 K | 0.0554
in water, 313.15 K | 0.0571
in water, 318.15 K | 0.059
in water, 323.15 K | 0.0612
in water, 328.15 K | 0.0632
in water, 333.15 K | 0.0671
